Key:
[1] = UV-Vis absorption and fluorescence spectroscopy of the Oxazine library; assay type: physicochemical; conditions: for Extinction coefficient: Beer's Law plots; for Quantum yield: relative, references Oxazine 1, Oxazine 170, Rhodamine 101
Procedure, shortened: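 Absorbance measured at room temperature in 1-cm quartz cuvette, reference corrected; extinction coefficient from Beer's Law plots of absorbance vs concentration. Fluorescence spectra corrected for PMT response; relative quantum yields averaged over multiple measurements against Oxazine 1, Oxazine 170 and Rhodamine 101 references.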

[2] = system: murine brachial plexus and sciatic nerves; assay: Nerve-specificity screening using systemic administration; assay type: in vivo; conditions: for nerve specificity / nerve contrast (N/M vs control group) following systemic administration: IV, 200 nmol, 4 hours prior to imaging; for N/M and N/A ratios vs unstained control animals: systemic administration
[3] = system: murine brachial plexus and sciatic nerves; assay: Nerve-specificity screening using direct/topical administration; assay type: in vivo, mouse; conditions: for nerve specificity (N/M contrast vs control group) via direct administration: 125 μM, imaged 30 minutes after staining; for N/M and N/A ratios vs unstained control animals: direct administration
Description: All reagents were purchased from Sigma Aldrich, Fisher Scientific, TCI, or Ark Pharm. Unless otherwise indicated, all commercially available starting materials were used directly without further purification. Analytical thin layer chromatography (TLC) was performed on Millipore ready-to-use plates with silica gel 60 (F254, 32-63 μm). Flash chromatography was performed on Sorbent Technologies silica gel for column chromatography or on a Biotage Isolera Flash System using SNAP Ultra cartridges. High-resolution mass spectra (HRMS) were measured on a ThermoElectron LTQ-Orbitrap high resolution mass spectrometer with a dedicated Accela HPLC system, or an Agilent 6244 time-of-flight LCMS with diode array detector VL+. LCMS and Purity Characterization Mass-to-charge ratio and purity of the Oxazine compounds were characterized on an Agilent 6244 time-of-flight tandem liquid chromatography mass spectroscopy (LCMS) with diode array detector VL+. Sample (10 μL) was injected into a C18 column (Poroshell 120, 4.6×50 mm, 2.7 micron), and eluted with a solvent system of A (H2O, 0.1% FA) and B (MeCN, 01.% FA) at 0.4 mL/min, from A/B=90/10 to 5/95 over 10 min, maintained at A/B=5/95 for additional 5 min. Ions were detected in positive ion mode by setting the capillary voltage at 4 kV and gas temperature at 350° C. Purity was calculated through area under the curve analysis of the absorbance at 254 nm. UV-Vis Absorption and Fluorescence Spectroscopy. UV-Vis spectra were collected with a Cary 50 UV-Vis spectrophotometer at room temperature, using a 1-cm quartz cuvette. Fluorescence spectra were collected on a Cary Eclipse fluorescence spectrophotometer (Agilent Technologies). All absorbance spectra were reference corrected. Extinction coefficient was calculated from Beer's Law plots of absorbance versus concentration. Fluorescence spectra were corrected for the wavelength dependent response of the R928 photomultiplier tube using a manufacturer generated correction file. Relative quantum yields are reported as the average of multiple measurements using multiple references, including Oxazine 1, Oxazine 170, and Rhodamine 101. Physicochemical Property Calculation. Physicochemical partition coefficients (Log D) values at pH 7.4, number of hydrogen bond donors and acceptors, polar surface area, and the number of rotatable bonds were calculated using Marvin and JChem calculator plugins (ChemAxon, Budapest, Hungary). Nerve-Specificity Screening using Direct/Topical Administration Each compound was screened for its tissue-specificity using a previously published direct/topical administration strategy in murine brachial plexus and sciatic nerves.^1 Each compound from the Oxazine library was formulated in the previously utilized co-solvent formulation (10% DMSO, 5% Kolliphor, 65% serum and 20% phosphate buffered saline) at 125 μM. 100 μL of the formulated Oxazine were incubated on the exposed brachial plexus or sciatic nerve for 5 minutes. The fluorophore containing solution was removed and the area was irrigated with saline 18 times to remove any unbound fluorophore. Co-registered fluorescence and color images were collected of each stained area 30 minutes after Oxazine direct/topical administration using a custom built macroscopic imaging system with 620/60 nm excitation and 700/75 nm bandpass emission filters. Custom written MatLab code was used to analyze the tissue specific fluorescence where regions of interest were selected on the nerve, muscle and adipose tissue using the white light images. These regions of interest were then analyzed on the co-registered matched fluorescence images permitting assessment of the nerve to muscle and nerve to adipose ratios in blinded manner. […]

Compound | Max Abs [1] | Max Em [1] | Max Ex [1] | Extinction coefficient [1] | Quantum yield [1] | nerve specificity / nerve contrast (N/M vs control group) following systemic administration [2] | nerve specificity (N/M contrast vs control group) via direct administration [3] | N/M and N/A ratios vs unstained control animals [2] | N/M and N/A ratios vs unstained control animals [3]
CC/N=c1/cc2oc3cc4c(cc3nc-2cc1C)C(C)=CC(C)(C)N4CC [LGW03-57, (Z)—N-(1-ethyl-2,2,4,8-tetramethyl-1,2-dihydro-9H-pyrido[3,2-b]phenoxazin-9-ylidene)ethanaminium] | 661 nm | 680 nm | 665 nm | 54072 M⁻¹ cm⁻¹ | 18.17% | negative for nerve contrast | positive nerve specificity | – | –
CC[N+](CC)=c1ccc2nc3ccc(N(C)C)cc3oc-2c1 [LGW03-76, N-(7-(dimethylamino)-3H-phenoxazin-3-ylidene)-N-ethylethanaminium] | 654 nm | 669 nm | 655 nm | 66111 M⁻¹ cm⁻¹ | 7.99% | high nerve specificity | high nerve specificity | significantly higher N/M and N/A ratios than unstained control animals | significantly higher N/M and N/A ratios than unstained control animals
CCCNc1cc2oc3cc(=[N+](CC)CC)ccc-3nc2cc1C [LGW04-31, N-ethyl-N-(8-methyl-7-(propylamino)-3H-phenoxazin-3-ylidene)ethanaminium] | 641 nm | 661 nm | 640 nm | 59586 M⁻¹ cm⁻¹ | 5.01% | high nerve specificity | high nerve specificity | significantly higher N/M and N/A ratios than unstained control animals | significantly higher N/M and N/A ratios than unstained control animals
CCN1CCc2cc3nc4ccc(=[N+](CC)CC)cc-4oc3cc21 [LGW05-84, N-ethyl-N-(1-ethyl-2,3-dihydropyrrolo[3,2-b]phenoxazin-8(1H)-ylidene)ethanaminium] | 643 nm | 675 nm | 650 nm | 46048 M⁻¹ cm⁻¹ | 4.85% | positive | negative nerve specificity | – | –
CC/N=c1/cc2oc3cc4c(cc3nc-2cc1C)CCN4 [LGW05-85, (Z)—N-(7-methyl-2,3-dihydropyrrolo[3,2-b]phenoxazin-8(1H)-ylidene)ethanaminium] | 613 nm | 640 nm | 615 nm | 45382 M⁻¹ cm⁻¹ | 41.05% | negative for nerve contrast | positive nerve specificity | – | –
CC/N=c1/cc2oc3cc(NCC)c(F)cc3nc-2cc1F [LGW05-91, (Z)—N-(7-(ethylamino)-2,8-difluoro-3H-phenoxazin-3-ylidene)ethanaminium] | 606 nm | 626 nm | 610 nm | 16763 M⁻¹ cm⁻¹ | 33.45% | negative for nerve contrast | positive nerve specificity | – | –
CC/N=c1/cc2oc3cc(N)c(C)cc3nc-2cc1C [LGW06-10, (Z)—N-(7-amino-2,8-dimethyl-3H-phenoxazin-3-ylidene)ethanaminium] | 602 nm | 621 nm | 605 nm | 55807 M⁻¹ cm⁻¹ | 26.54% | negative for nerve contrast | positive nerve specificity | – | –
CC[N+](CC)=c1ccc2nc3cc(C)c(N)cc3oc-2c1 [LGW06-11, N-(7-amino-8-methyl-3H-phenoxazin-3-ylidene)-N-ethylethanaminium] | 628 nm | 650 nm | 625 nm | 31843 M⁻¹ cm⁻¹ | 2.52% | negative for nerve contrast | positive nerve specificity | – | –
CC/N=c1/cc2oc3cc(N)ccc3nc-2cc1C [LGW06-97, (Z)—N-(7-amino-2-methyl-3H-phenoxazin-3-ylidene)ethanaminium] | 599 nm | 617 nm | 600 nm | 38616 M⁻¹ cm⁻¹ | 25.39% | negative for nerve contrast | positive nerve specificity | – | –
c1c2c(cc3c1N=c1cc4c(cc1O3)=NCC4)NCC2 [LGW07-55, 2,3,7,8-tetrahydro-1H-dipyrrolo[3,2-b:2′,3′-i]phenoxazin-9-ium] | 619 nm | 634 nm | 620 nm | 20163 M⁻¹ cm⁻¹ | 28.25% | negative for nerve contrast | positive nerve specificity | – | –
